Assay results reported in patent US20240140986A1, “SYNTHETIC URSOLIC ACID DERIVATIVES AND METHODS OF USE THEREOF” (REATA PHARMACEUTICALS, INC., priority 2021, published 2024).
Where two headings read alike, the source gives them in different places.

How the values were obtained:
[1] = system: IFNγ-induced NO production in RAW 264.7 cells; assay: Nitric Oxide Suppression Assay (IFNγ-induced NO, Griess nitrite readout); assay type: cell-based, mouse; conditions: for IC50: Mus musculus; for Avg NO IC50 Relative to RTA402 (fold): Table 2, ratio to RTA402
Outline: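 RAW 264.7 mouse macrophages in RPMI 1640 with 0.5% FBS were pretreated 2 h with compound (0.1% DMSO final), then stimulated with 20 ng/mL IFNγ for 24 h at 37° C. Supernatant nitrite was read by Griess absorbance at 525 nm against a nitrite standard curve, normalized to DMSO-IFNγ wells; IC50 from curve fit. Viability by WST-1.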

[2] = system: Nrf2 / ARE-dependent luciferase in AREc32 reporter cell line; assay: AREc32 luciferase reporter activation (Nrf2 induction); assay type: cell-based, human; conditions: for EC (2-fold): Homo sapiens, Arec32; for Relative Avg AREc32 EC2X Relative to RTA402 (fold): ratio to RTA402
Outline: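 EC2X is the concentration raising luminescence 2-fold above DMSO-treated cells, from a nonlinear-regression dose–response fit. Compounds (0.03–1000 nM) were applied for nineteen hours, starting one day after seeding 20,000 reporter cells per well. Luciferase was read with One-Glo reagent.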

[3] = RAW264.7, Table 3, oleanolic acid derivative analogs, read-out: Avg NO IC50
[4] = Table 3, oleanolic acid derivative analogs, read-out: Avg ARE EC-2X
[5] = RAW264.7, Table 2, RAW 264.7 cells, 2 h pretreatment, 20 ng/mL interferon gamma 24 h, read-out: Avg NO IC50 (nM) (Mean ± SD)
[6] = RAW264.7, Table 3, ursolic acid derivatives, read-out: Avg NO IC50 (nM) (Mean ± SD)
[7] = Table 2, concentration increasing luminescence 2-fold above vehicle, 19 h treatment, read-out: Avg AREc32 EC2X (nM) (Mean ± SD)
[8] = Table 3, ursolic acid derivatives, read-out: Avg ARE EC-2X (nM) (Mean ± SD)

IC50 [1, 3] [nM] | IC50 [1, 5] [nM] | IC50 [1, 6] [nM] | Avg NO IC50 Relative to RTA402 (fold) [1] [fold] | SMILES | EC (2-fold) [2, 4] [nM] | EC (2-fold) [2, 7] [nM] | EC (2-fold) [2, 8] [nM] | Relative Avg AREc32 EC2X Relative to RTA402 (fold) ([2]; Table 2)
0.5 | – | – | – | CC1(C)CC[C@]2(CO)CC[C@]3(C)[C@H](C(=O)C=C4[C@@]5(C)C=C(C#N)C(=O)C(C)(C)[C@@H]5CC[C@]43C)[C@@H]2C1 [CC13, reference compound] | 8.82 | – | – | –
– | 26 ± 8.8 | 26 ± 8.8 | 8.67 ± 3.30 | C[C@@H]1[C@H]2[C@H]3C(=O)C=C4[C@@]5(C)C=C(C#N)C(=O)C(C)(C)[C@@H]5CC[C@@]4(C)[C@]3(C)CC[C@@]2(N2CCCC2=O)CC[C@H]1C [Compound T58] | – | 33.6 ± 3.3 | 33.6 ± 3.3 | 2.64 ± 0.47
– | 8.99 ± 1.84 | – | 3.35 ± 0.65 | C[C@@H]1[C@H]2[C@H]3C(=O)C=C4[C@@]5(C)C=C(C#N)C(=O)C(C)(C)[C@@H]5CC[C@@]4(C)[C@]3(C)CC[C@@]2(Cn2cnnn2)CC[C@H]1C [Compound T52] | – | 8.74 ± 0.51 | – | 0.654 ± 0.079
– | 2.43 ± 0.95 | – | 0.683 ± 0.093 | CNC(=O)CC[C@]12CC[C@@H](C)[C@H](C)[C@H]1[C@H]1C(=O)C=C3[C@@]4(C)C=C(C#N)C(=O)C(C)(C)[C@@H]4CC[C@@]3(C)[C@]1(C)CC2 [Compound T78] | – | 2.33 ± 0.78 | – | 0.194 ± 0.058
– | 23.4 ± 5.4 | 23.4 ± 5.4 | 8.76 ± 3.40 | C[C@@H]1[C@H]2[C@H]3C(=O)C=C4[C@@]5(C)C=C(C#N)C(=O)C(C)(C)[C@@H]5CC[C@@]4(C)[C@]3(C)CC[C@@]2(n2ccnc2)CC[C@H]1C [Compound T62] | – | 19.7 ± 2 | 19.7 ± 2 | 1.55 ± 0.28
– | 26 ± 7.6 | 26 ± 7.6 | 10.9 ± 1.6 | C[C@@H]1[C@H]2[C@H]3C(=O)C=C4[C@@]5(C)C=C(C#N)C(=O)C(C)(C)[C@@H]5CC[C@@]4(C)[C@]3(C)CC[C@@]2(CN)CC[C@H]1C [Compound T21] | – | 14.7 ± 1.3 | 14.7 ± 1.3 | 1.27 ± 0.045
– | 12.9 ± 4.6 | 12.9 ± 4.6 | 3.72 ± 0.60 | C[C@@H]1[C@H]2[C@H]3C(=O)C=C4[C@@]5(C)C=C(C#N)C(=O)C(C)(C)[C@@H]5CC[C@@]4(C)[C@]3(C)CC[C@@]2(CNC(=O)OC(C)(C)C)CC[C@H]1C [Compound T20] | – | 21.5 ± 4.6 | 21.5 ± 4.6 | 1.83 ± 0.41
– | 26.1 ± 7.6 | – | 6.55 ± 2.23 | C[C@@H]1[C@H]2[C@H]3C(=O)C=C4[C@@]5(C)C=C(C#N)C(=O)C(C)(C)[C@@H]5CC[C@@]4(C)[C@]3(C)CC[C@@]2(C(=O)NCC(F)F)CC[C@H]1C [Compound T87] | – | 23.6 ± 0.9 | – | 2.0 ± 0.1
– | 38.2 ± 10 | 38.2 ± 10 | 14.80 ± 6.91 | C[C@@H]1[C@H]2[C@H]3C(=O)C=C4[C@@]5(C)C=C(C#N)C(=O)C(C)(C)[C@@H]5CC[C@@]4(C)[C@]3(C)CC[C@@]2(CN2CCOC2)CC[C@H]1C [Compound T42] | – | 26.3 ± 6 | 26.3 ± 6 | 2.43 ± 0.39
– | 14.8 ± 2.8 | – | 9.13 ± 1.38 | COC(=O)CC[C@]12CC[C@@H](C)[C@H](C)[C@H]1[C@H]1C(=O)C=C3[C@@]4(C)C=C(C#N)C(=O)C(C)(C)[C@@H]4CC[C@@]3(C)[C@]1(C)CC2 [Compound T76] | – | 8.7 ± 0.63 | – | 1.1 ± 0.3
– | 57.4 ± 15.7 | – | 37.4 ± 3.76 | C[C@@H]1[C@H]2[C@H]3C(=O)C[C@@H]4[C@@]5(C)C=C(C#N)C(=O)C(C)(C)[C@@H]5CC[C@@]4(C)[C@]3(C)CC[C@@]2(CNC(=O)OC(C)(C)C)CC[C@H]1C [Compound T106] | – | 265 ± 21 | – | 28.2 ± 4.5
– | 25.8 ± 9.3 | 25.8 ± 9.3 | 9.8 ± 5.7 | C[C@@H]1[C@H]2[C@H]3C(=O)C=C4[C@@]5(C)C=C(C#N)C(=O)C(C)(C)[C@@H]5CC[C@@]4(C)[C@]3(C)CC[C@@]2(CNCCO)CC[C@H]1C [Compound T40] | – | 16.1 ± 1.5 | 16.1 ± 1.5 | 1.2 ± 0.2
– | 32.6 ± 2.2 | – | 8.4 ± 2.7 | C[C@@H]1[C@H]2[C@H]3C(=O)C=C4[C@@]5(C)C=C(C#N)C(=O)C(C)(C)[C@@H]5CC[C@@]4(C)[C@]3(C)CC[C@@]2(Cn2cccn2)CC[C@H]1C [Compound T46] | – | 24.1 ± 6.7 | – | 2.06 ± 0.26
– | 12.9 ± 5.1 | – | 6.48 ± 0.96 | COC(=O)C[C@]12CC[C@@H](C)[C@H](C)[C@H]1[C@H]1C(=O)C=C3[C@@]4(C)C=C(C#N)C(=O)C(C)(C)[C@@H]4CC[C@@]3(C)[C@]1(C)CC2 [Compound T88] | – | 10.7 ± 3.2 | – | 1.03 ± 0.33
– | 2.08 ± 0.14 | 2.08 ± 0.14 | 1.45 ± 0.28 | C[C@@H]1[C@H]2[C@H]3C(=O)C=C4[C@@]5(C)C=C(C#N)C(=O)C(C)(C)[C@@H]5CC[C@@]4(C)[C@]3(C)CC[C@@]2(c2nc(CO)no2)CC[C@H]1C [Compound T10] | – | 2.4 ± 0.3 | 2.4 ± 0.3 | 0.193 ± 0.024
– | 5.1 ± 1.02 | – | 2.51 ± 0.94 | COCc1noc([C@]23CC[C@@H](C)[C@H](C)[C@H]2[C@H]2C(=O)C=C4[C@@]5(C)C=C(C#N)C(=O)C(C)(C)[C@@H]5CC[C@@]4(C)[C@]2(C)CC3)n1 [Compound T3] | – | 6.16 ± 1.02 | – | 0.598 ± 0.137
– | 3.07 ± 1.43 | 3.07 ± 1.43 | 0.80 ± 0.13 | CCC(=O)NC[C@]12CC[C@@H](C)[C@H](C)[C@H]1[C@H]1C(=O)C=C3[C@@]4(C)C=C(C#N)C(=O)C(C)(C)[C@@H]4CC[C@@]3(C)[C@]1(C)CC2 [Compound T23] | – | 1.89 ± 0.91 | 1.89 ± 0.91 | 0.166 ± 0.071
– | 23 ± 4.1 | – | 13.7 ± 5.76 | CC(=O)N[C@]12CC[C@@H](C)[C@H](C)[C@H]1[C@H]1C(=O)C=C3[C@@]4(C)C=C(C#N)C(=O)C(C)(C)[C@@H]4CC[C@@]3(C)[C@]1(C)CC2 [Compound T18] | – | 27.3 ± 5.8 | – | 1.97 ± 0.24
– | 23.1 ± 6.6 | – | 7.02 ± 1.96 | CONC(=O)[C@]12CC[C@@H](C)[C@H](C)[C@H]1[C@H]1C(=O)C=C3[C@@]4(C)C=C(C#N)C(=O)C(C)(C)[C@@H]4CC[C@@]3(C)[C@]1(C)CC2 [Compound T73] | – | 7.93 ± 0.82 | – | 0.681 ± 0.159
– | 3.76 ± 1.35 | – | 2.53 ± 0.74 | Cc1noc([C@]23CC[C@@H](C)[C@H](C)[C@H]2[C@H]2C(=O)C=C4[C@@]5(C)C=C(C#N)C(=O)C(C)(C)[C@@H]5CC[C@@]4(C)[C@]2(C)CC3)n1 [Compound T1] | – | 8.44 ± 1.56 | – | 0.744 ± 0.121
5.3 | – | – | – | CCc1noc([C@]23CCC(C)(C)C[C@H]2[C@H]2C(=O)C=C4[C@@]5(C)C=C(C#N)C(=O)C(C)(C)[C@@H]5CC[C@@]4(C)[C@]2(C)CC3)n1 [CC4, reference compound] | 21.4 | – | – | –
– | 2.76 ± 1.02 | – | 1.09 ± 0.03 | C[C@@H]1[C@H]2[C@H]3C(=O)C=C4[C@@]5(C)C=C(C#N)C(=O)C(C)(C)[C@@H]5CC[C@@]4(C)[C@]3(C)CC[C@@]2(CCC(=O)N2CCC2)CC[C@H]1C [Compound T80] | – | 3.72 ± 0.14 | – | 0.311 ± 0.023
– | 15.2 ± 4.3 | – | 4.45 ± 1.25 | C[C@@H]1[C@H]2[C@H]3C(=O)C=C4[C@@]5(C)C6O[C@@]6(C#N)C(=O)C(C)(C)[C@@H]5CC[C@@]4(C)[C@]3(C)CC[C@@]2(CNC(=O)C2CC2)CC[C@H]1C (stereo partly shown) [Compound T98] | – | 6.85 ± 0.51 | – | 0.574 ± 0.052
1.2 | – | – | – | CN1CCN(C[C@]23CCC(C)(C)C[C@H]2[C@H]2C(=O)C=C4[C@@]5(C)C=C(C#N)C(=O)C(C)(C)[C@@H]5CC[C@@]4(C)[C@]2(C)CC3)C1=O [CC44, reference compound] | 6.07 | – | – | –
